“And” between values parts separate entries of the source, which are not always exact repeats. Identical values can stand only once.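 A five-concentration, 48-hour dose response in 96-well plates underlies each endpoint, interpolated linearly between surrounding concentrations. Here, GI50 denotes the concentration required for 50% inhibition of growth. At the TGI there is no net growth.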

Common to all, as to assay: inhibition of tumour cell growth, NCI panel, 48 h
Assay [1] deals with LOX IMVI melanoma.
Assay [2] has as its system HT29 colon.
Assay [3] has as its system IGROV1 ovarian.
The test system of assay [4] is OVCAR-8 ovarian.
Assay [5] has as its system SF-295 CNS.
Assay [6] concerns MALME-3M melanoma.
Assay [7] concerns COLO 205 colon.
The subject of assay [8] is SK-OV-3 ovarian.
Assay [9] deals with U251 CNS.
Assay [10] has as its system KM12 colon.

As for `CC1(O)CC(c2nc(-c3ccc4ccc(-c5ccccc5)nc4c3)c3c(N)nccn23)C1` (centres undefined), the GI50 in [1] is 7.41 µM and 6.46 µM; in assay [2] it was 0.105 µM and 0.0588 µM; in assay [3], 19.1 µM and > 10 µM; in assay [4], 9.34 µM and > 10 µM; in [5], 12.5 µM and > 10 µM; in assay [6], 7.95 µM and > 10 µM. For the same compound, the GI50 in [7] is 0.346 µM and 0.0989 µM; in assay [8], 10.4 µM and 9.84 µM; in [9], 13.4 µM and > 10 µM; in assay [10] it was 4.31 µM and 3.88 µM. For the same compound, the TGI is 45.4 µM and > 10 µM in [1]; 21.5 µM and > 10 µM in assay [2]; greater than 100 µM in assay [3]; 80 µM and > 10 µM in assay [4]; 48.1 µM and > 10 µM in [5]; 38.2 µM and > 10 µM in [6]. The TGI was 14.2 µM and 4.07 µM in assay [7]; greater than 100 µM in assay [8]; 36.3 µM and > 10 µM in assay [9]; 19.4 µM and > 10 µM in assay [10].

With `COc1ccccc1N1CCN(CCc2c[nH]c3cc4c(cc23)OCO4)CC1`, the GI50 in assay [1] is 11.6 µM; in assay [2], 3.39 µM; in [3] it was 40.2 µM; in assay [4] it was 42 µM; in assay [5], 0.646 µM; in [6] it was 27.9 µM. The GI50 is 15.3 µM in [7], 81.6 µM in assay [8], 32.2 µM in assay [9] and 27.3 µM in assay [10]. For the same compound, the TGI is 35.7 µM in assay [1]; greater than 100 µM in assay [2]; greater than 100 µM in [3]; greater than 100 µM in [4]; 27.7 µM in [5]; greater than 100 µM in [6]. In addition, the TGI is 34.7 µM in assay [7], greater than 100 µM in assay [8], greater than 100 µM in assay [9] and greater than 100 µM in assay [10].

With `CCN1Cc2c(ccc(F)c2C#N)O[C@@H](C)CNC(=O)c2c(N)nn3ccc1nc23`, the GI50 in assay [1] is 1.13 µM; in assay [2] it was 0.98 µM; in [3], 0.682 µM; in [4], 4.33 µM; in [5] it was 0.0758 µM; in assay [6], 1.15 µM. In addition, the GI50 is 0.815 µM in [7], 1.66 µM in [8] and 5.34 µM in [9]. Besides, the TGI was 6.9 µM in [1]; 46.7 µM in [2]; 13 µM in assay [3]; greater than 100 µM in assay [4]; 10.3 µM in assay [5]; 7.4 µM in assay [6]. Further, the TGI in [7] is 3.74 µM; in [8], 15.3 µM; in [9], 32.4 µM; in assay [10] it was 69.7 µM.

Regarding `c1ccc2cc3[s+]snc3cc2c1`, the TGI in assay [1], in assay [2], in assay [3], in [4], in assay [5] and in assay [6] was greater than 100 µM throughout. The TGI in assay [7], in assay [8], in assay [9] and in assay [10] was greater than 100 µM in each case.

Consider `O=C(Nc1ccc2[nH]c(=S)sc2c1)Nc1ccccc1F`, for which the GI50 in assay [1] is 16.3 µM; in assay [2], 44.3 µM; in assay [3], 3.58 µM; in [4], 56.5 µM; in assay [5], 28.8 µM; in assay [6] it was 18.4 µM. For the same compound, the GI50 was 24.5 µM in assay [7], greater than 100 µM in assay [8], 57.5 µM in assay [9] and 24.7 µM in assay [10]. Further, the TGI in [1] is greater than 100 µM; in assay [2] it was greater than 100 µM; in [3], greater than 100 µM; in [4], greater than 100 µM; in [5] it was greater than 100 µM; in assay [6], 64.2 µM. Further, the TGI in assay [7] was 65.4 µM; in [8], greater than 100 µM; in [9], greater than 100 µM; in [10], greater than 100 µM.

Regarding `Cc1ccc2nc(-c3ccccc3)c(N=O)n2c1`, the TGI in assay [1], in assay [2], in assay [3], in [4], in assay [5] and in assay [6] was greater than 100 µM throughout. Also, the TGI in assay [7], in assay [8], in assay [9] and in assay [10] was greater than 100 µM throughout.

Regarding `COc1cc(/C=C/C(=O)c2c(C)nc3ccccc3c2/C=C/c2ccc(C)cc2)cc(OC)c1OC`, the GI50 in assay [1] is 1.45 µM; in assay [2], 2.81 µM; in [3], 1.72 µM; in assay [4], 3.25 µM; in [5], 2.19 µM; in assay [6], 1.85 µM. Moreover, the GI50 is 2.53 µM in assay [7], 11 µM in assay [8], 1.73 µM in assay [9] and 1.87 µM in [10]. In addition, the TGI in assay [1] is 2.76 µM; in assay [2] it was 14 µM; in assay [3] it was 3.72 µM; in [4], greater than 100 µM; in assay [5] it was 5.4 µM; in assay [6], 3.52 µM. Besides, the TGI in assay [7] was 6.09 µM; in assay [8], greater than 100 µM; in assay [9], 3.57 µM; in assay [10], 3.6 µM.

For the compound `Cc1[nH]c(=O)n2c(C)nnc2c1C(=O)Nc1cc(Cl)cc(Cl)c1`, the TGI in assay [1] was greater than 100 µM; in [2], greater than 100 µM; in [3], 82 µM; in assay [4], greater than 100 µM; in [5], greater than 100 µM; in assay [6] it was greater than 100 µM. Besides, the TGI in assay [7] is 79.4 µM; in [8] it was 70.7 µM; in assay [9] it was 53.2 µM; in assay [10], greater than 100 µM.

On to `O=C(O)CNS(=O)(=O)c1ccc(NC(=O)CI)cc1`, for which the TGI was 37.6 µM in [1]; 54.4 µM in assay [2]; greater than 100 µM in [3]; 48.6 µM in assay [4]; 68.5 µM in assay [5]; 39.6 µM in assay [6]. Also, the TGI in assay [7] stood at 96.8 µM; in assay [8], 72.8 µM; in assay [9], 35 µM; in assay [10] it was 68.5 µM.

The record behind these values is PubChem BioAssay (NCI).
